Test system: primary human fibroblasts derived from IPF patients (LL29 cells)
Assay: Inhibition of fibrosis (αSMA) in TGF-β1 treated primary human fibroblasts from IPF patients
Assay type: cell-based
Settings: Fibroblast, 96 h, TGF-β1 20 ng/mL, 4 days, % αSMA positive cells
Excerpt: The above synthesized compounds were screened using primary human fibroblasts (derived from IPF patients) treated with TGF-β1 to determine their ability to inhibit the fibrotic process.
Primary human fibroblasts derived from IPF patients (LL29 cells) [^1Xiaoqiu Liu, et.al., “Fibrotic Lung Fibroblasts Show Blunted Inhibition by cAMP Due to Deficient cAMP Response Element-Binding Protein Phosphorylation”, Journal of Pharmacology and Experimental Therapeutics (2005), 315(2), 678-687; ^2Watts, K. L., et.al., “RhoA signaling modulates cyclin D1 expression in human lung fibroblasts; implications for idiopathic pulmonary fibrosis”, Respiratory Research (2006), 7(1), 88] were obtained from American Type Culture Collection (ATCC) and expanded in F12 medium supplemented with 15% Fetal Bovine Serum and Penicillin/Streptomycin.
Each compound was dissolved in DMSO as a 10 mM stock and used to prepare compound source plates. Serial dilution (1:2, 11-point dose-response curves from 10 μM to 1.87 nM) and compound transfer was performed using the ECHO 550 (Labcyte, Sunnyvale, Calif.) into 384-well clear bottom assay plates (Greiner Bio-One) with appropriate DMSO backfill for a final DMSO concentration of 0.1%. LL29 cells were plated at 1,500 cells/well in 80 μl/well F12 medium supplemented with 1% Fetal Bovine Serum. One hour after addition of the cells, TGF-β1 (Peprotech; 20 ng/mL) was added to the plates to induce fibrosis (ref. 1 and 2 above). Wells treated with TGF-β1 and containing DMSO were used as controls. Cells were incubated at 37° C. and 5% CO2 for 4 days. Following incubation for 4 days, SYTOX green nucleic acid stain (Life Technologies [Thermo Fisher Scientific]) was added to the wells at a final concentration of 1 uM and incubated at room temperature for 30 min. Cells were then fixed using 4% formaldehyde (Electron Microscopy Sciences), washed 3 times with PBS followed by blocking and permeabilization using 3% Bovine Serum Albumin (BSA; Sigma) and 0.3% Triton X-100 (Sigma) in PBS. Cells were then stained with antibody specific to α-smooth muscle actin (αSMA; Abcam) (ref. 1 and 2 above) in 3% Bovine Serum Albumin (BSA; Sigma) and 0.3% Triton X-100 (Sigma) in PBS, and incubated overnight at 4° C. Cells were then washed 3 times with PBS, followed by incubation with Alexa Flor-647 conjugated secondary antibody (Life Technologies [Thermo Fisher Scientific]) and DAPI at room temperature for 1 hour. Cells were then washed 3 times with PBS and plates were sealed for imaging. αSMA staining was imaged by excitation at 630 nm and emission at 665 nm and quantified using the Compartmental Analysis program on the CellInsight CX5 (Thermo Scientific). Dead or apoptotic cells were excluded from analysis based on positive SYTOX green staining. % of total cells positive for αSMA were counted in each well and normalized to the average of 11 wells treated with TGF-β1 on the same plate using Dotmatics' Studies Software. The normalized averages (fold change over untreated) of 3 replicate wells for each compound concentration were used to create dose-responses curves and EC50 values were calculated using non-linear regression curve fit in the Dotmatics' Studies Software. The EC50 values are reported.

| SMILES | EC50 [nM] |
| --- | --- |
| CCC(=O)Nc1cncc(-c2ccc3[nH]nc(-c4nc5c(-c6cccc(F)c6)ccnc5[nH]4)c3c2)c1 [Compound 1, N-(5-(3-(7-(3-Fluorophenyl)-3H-imidazo[4,5-b]pyridin-2-yl)-1H-indazol-5-yl)pyridin-3-yl)propionamide] | 0.015 |
| CN(C)CCOc1cncc(-c2ccc3[nH]nc(-c4nc5c(-c6cccc(F)c6)ccnc5[nH]4)c3c2)c1 [Compound 1883, 2-((5-(3-(7-(3-Fluorophenyl)-3H-imidazo[4,5-b]pyridin-2-yl)-1H-indazol-5-yl)pyridin-3-yl)oxy)-N,N-dimethylethanamine] | 0.095 |

Test system: Wnt activity (SW480 colon carcinoma cells stably expressing the Sp5-Luc reporter gene)
Assay: Sp5-Luc reporter gene screening assay for Wnt activity in SW480 cells
Assay type: cell-based
Settings: Homo sapiens, 42 h incubation, luminescence
Excerpt: The screening assay for Wnt activity is described as follows. Reporter cell lines can be generated by stably transducing cancer cell lines (e.g., colon cancer) or primary cells (e.g., IEC-6 intestinal cells) with a lentiviral construct that includes a Wnt-responsive promoter driving expression of the firefly luciferase gene.
SW480 colon carcinoma cells were transduced with a lentiviral vector expressing luciferase with a human Sp5 promoter consisting of a sequence of eight TCF/LEF binding sites. SW480 cells stably expressing the Sp5-Luc reporter gene and a hygromycin resistance gene were selected by treatment with 150 μg/ml of hygromycin for 7 days. These stably transduced SW480 cells were expanded in cell culture and used for all further screening activities. For Sp5-Luc reporter gene assays, the cells were plated at 10,000 cells/well in 96-well plates with growth medium containing 10% fetal calf serum and incubated overnight at 37° C. and 5% CO2. Each compound was dissolved in DMSO as a 10 mM stock in standard j-vials and used to prepare compound source plates in dose-response format with 3-fold serial dilutions and a 10 mM top concentration. Compound transfer from serially diluted source plates to assay plates containing the cells was accomplished using a pintool (Multimek 96, Beckman equipped with V&P Scientific FP1S50H pins) based liquid handling protocol. This protocol used a slotted pin to transfer 50 nl of compound from a source plate well to an assay plate well containing 50 μl of cells in growth medium. […] Control wells received 50 nl of DMSO treatment for normalization and calculating IC50 values. The treated cells were incubated at 37° C. and 5% CO2 for an additional forty-two hours. Following incubation, the growth medium was removed and 50 μl of BrightGlo luminescence reagent (Promega) was added to each well of the 96-well assay plates. The plates were placed on an orbital shaker for 5 min and then luminescence was quantified on the Victor3 (Perkin Elmer) plate reader. Readings were normalized to DMSO only treated cells, and normalized activities were utilized for IC50 calculations using the dose-response log (inhibitor) vs. response—variable slope (four parameters) nonlinear regression feature available in GraphPad Prism 5.0 or 6.0.

| SMILES | IC50 [nM] |
| --- | --- |
| CCC(=O)Nc1cncc(-c2ccc3[nH]nc(-c4nc5c(-c6cccc(F)c6)ccnc5[nH]4)c3c2)c1 [Compound 1, N-(5-(3-(7-(3-Fluorophenyl)-3H-imidazo[4,5-b]pyridin-2-yl)-1H-indazol-5-yl)pyridin-3-yl)propionamide] | < 1 |
| CS(=O)(=O)NCc1cc(F)cc(-c2ccnc3[nH]c(-c4n[nH]c5ccc(-c6cncc(NC(=O)c7ccccc7)c6)cc45)nc23)c1 [Compound 427, N-(5-(3-(7-(3-Fluoro-5-(methylsulfonamidomethyl)phenyl)-3H-imidazo[4,5-b]pyridin-2-yl)-1H-indazol-5-yl)pyridin-3-yl)benzamide] | 19.2 |
| CS(=O)(=O)NCc1cc(F)cc(-c2ccnc3[nH]c(-c4n[nH]c5ccc(-c6cncnc6)cc45)nc23)c1 [Compound 442, N-(3-Fluoro-5-(2-(5-(pyrimidin-5-yl)-1H-indazol-3-yl)-3H-imidazo[4,5-b]pyridin-7-yl)benzyl)methanesulfonamide] | 5.8 |
| CN(C)Cc1cncc(-c2cc(F)c3[nH]nc(-c4nc5c(-c6cccc(F)c6)ccnc5[nH]4)c3c2)c1 [Compound 481, 1-(5-(7-fluoro-3-(7-(3-fluorophenyl)-3H-imidazo[4,5-b]pyridin-2-yl)-1H-indazol-5-yl)pyridin-3-yl)-N,N-dimethylmethanamine] | 155 |
| CN(C)Cc1cncc(-c2cc(F)c3[nH]nc(-c4nc5c(-c6ccsc6)ccnc5[nH]4)c3c2)c1 [Compound 741, 1-(5-(7-Fluoro-3-(7-(thiophen-3-yl)-3H-imidazo[4,5-b]pyridin-2-yl)-1H-indazol-5-yl)pyridin-3-yl)-N,N-dimethylmethanamine] | 936 |
| CN(C)Cc1cncc(-c2cc(F)c3[nH]nc(-c4nc5c(-c6cc(F)cc(CNS(C)(=O)=O)c6)ccnc5[nH]4)c3c2)c1 [Compound 897, N-(3-(2-(5-(5-((Dimethylamino)methyl)pyridin-3-yl)-7-fluoro-1H-indazol-3-yl)-3H-imidazo[4,5-b]pyridin-7-yl)-5-fluorobenzyl)methanesulfonamide] | 74 |
| CN(C)Cc1cncc(-c2cc3c(-c4nc5c(-c6cccc(F)c6)ccnc5[nH]4)n[nH]c3cc2F)c1 [Compound 949, 1-(5-(6-Fluoro-3-(7-(3-fluorophenyl)-3H-imidazo[4,5-b]pyridin-2-yl)-1H-indazol-5-yl)pyridin-3-yl)-N,N-dimethylmethanamine] | > 10000 |
| CN(C)Cc1cncc(-c2cc3c(-c4nc5c(-c6ccsc6)ccnc5[nH]4)n[nH]c3cc2F)c1 [Compound 1209, 1-(5-(6-Fluoro-3-(7-(thiophen-3-yl)-3H-imidazo[4,5-b]pyridin-2-yl)-1H-indazol-5-yl)pyridin-3-yl)-N,N-dimethylmethanamine] | > 10000 |
| CN(C)Cc1cncc(-c2cc3c(-c4nc5c(-c6cc(F)cc(CNS(C)(=O)=O)c6)ccnc5[nH]4)n[nH]c3cc2F)c1 [Compound 1365, N-(3-(2-(5-(5-((Dimethylamino)methyl)pyridin-3-yl)-6-fluoro-1H-indazol-3-yl)-3H-imidazo[4,5-b]pyridin-7-yl)-5-fluorobenzyl)methanesulfonamide] | 804 |
| CN(C)Cc1cncc(-c2ccc3[nH]nc(-c4nc5c(-c6cccc(F)c6)ccnc5[nH]4)c3c2F)c1 [Compound 1417, 1-(5-(4-Fluoro-3-(7-(3-fluorophenyl)-3H-imidazo[4,5-b]pyridin-2-yl)-1H-indazol-5-yl)pyridin-3-yl)-N,N-dimethylmethanamine] | 923 |
| CN(C)Cc1cncc(-c2ccc3[nH]nc(-c4nc5c(-c6ccsc6)ccnc5[nH]4)c3c2F)c1 [Compound 1677, 1-(5-(4-Fluoro-3-(7-(thiophen-3-yl)-3H-imidazo[4,5-b]pyridin-2-yl)-1H-indazol-5-yl)pyridin-3-yl)-N,N-dimethylmethanamine] | 673 |
| CN(C)Cc1cncc(-c2ccc3[nH]nc(-c4nc5c(-c6cc(F)cc(CNS(C)(=O)=O)c6)ccnc5[nH]4)c3c2F)c1 [Compound 1833, N-(3-(2-(5-(5-((Dimethylamino)methyl)pyridin-3-yl)-4-fluoro-1H-indazol-3-yl)-3H-imidazo[4,5-b]pyridin-7-yl)-5-fluorobenzyl)methanesulfonamide] | 773 |
| Fc1cccc(-c2ccnc3[nH]c(-c4n[nH]c5ccc(-c6cncc(OCCN7CCCC7)c6)cc45)nc23)c1 [Compound 1882, 7-(3-Fluorophenyl)-2-(5-(5-(2-(pyrrolidin-1-yl)ethoxy)pyridin-3-yl)-1H-indazol-3-yl)-3H-imidazo[4,5-b]pyridine] | 4140 |
| Fc1cccc(-c2ccnc3[nH]c(-c4n[nH]c5ccc(-c6cncc(OCc7ccccc7)c6)cc45)nc23)c1 [Compound 1886, 2-(5-(5-(Benzyloxy)pyridin-3-yl)-1H-indazol-3-yl)-7-(3-fluorophenyl)-3H-imidazo[4,5-b]pyridine] | > 10000 |
| CC(C)CC(=O)Nc1cncc(-c2ccc3[nH]nc(-c4nc5c(-c6cc(F)cc(OCCN(C)C)c6)ccnc5[nH]4)c3c2)c1 [Compound 2198, N-(5-(3-(7-(3-(2-(Dimethylamino)ethoxy)-5-fluorophenyl)-3H-imidazo[4,5-b]pyridin-2-yl)-1H-indazol-5-yl)pyridin-3-yl)-3-methylbutanamide] | 180 |
| CC(C)CC(=O)Nc1cncc(-c2ccc3[nH]nc(-c4nc5c(-c6cc(F)cc(OCCN7CCCC7)c6)ccnc5[nH]4)c3c2)c1 [Compound 2242, N-(5-(3-(7-(3-Fluoro-5-(2-(pyrrolidin-1-yl)ethoxy)phenyl)-3H-imidazo[4,5-b]pyridin-2-yl)-1H-indazol-5-yl)pyridin-3-yl)-3-methylbutanamide] | 440 |
| CC(C)CC(=O)Nc1cncc(-c2ccc3[nH]nc(-c4nc5c(-c6cc(O)cc(F)c6)ccnc5[nH]4)c3c2)c1 [Compound 2286, N-(5-(3-(7-(3-Fluoro-5-hydroxyphenyl)-3H-imidazo[4,5-b]pyridin-2-yl)-1H-indazol-5-yl)pyridin-3-yl)-3-methylbutanamide] | 55 |
| COc1cc(F)cc(-c2ccnc3[nH]c(-c4n[nH]c5ccc(-c6cncc(NC(=O)CC(C)C)c6)cc45)nc23)c1 [Compound 2330, N-(5-(3-(7-(3-Fluoro-5-methoxyphenyl)-3H-imidazo[4,5-b]pyridin-2-yl)-1H-indazol-5-yl)pyridin-3-yl)-3-methylbutanamide] | 20 |
